# Data reported in patent US4939124A, “Treatment and diagnosis of dementia” (Laboratorios Serono S.A., priority 1988, dated 1990).
# Key:
# [1] = tested on: Male Wistar rats; test: Locomotor activity and learning in maze paradigm (escape from 1.5 mA shock area), i.c.v. injection; format: in vivo
# Procedure: The animals had to learn to escape from the shock area in order to avoid a continuous 1.5 mA electric shock. Experimental time --30 minutes.
# The rats were treated intracerebroventricularly with SS-14 (1 mcg) and GRF1-44 (1 mcg) and their behavior was automatically recorded by computer using the maze paradigm shown in FIG. 1. p/t denotes pulses per time unit (minute). Locomotor activity was quantified in pulses per minute or cm^2 /min. Total inputs (I/O) in neutral position (white bars) and shock position (black bars) denote how many times the animals enter neutral and shock areas. The N/S ratio results from dividing I/O in neutral position by I/O in shock position and is interpreted as an index of learning in the 30-minute experimental period. The positional time (seconds) represents how long the animals stay in neutral (white bars) or shock (black bars) areas. N-sp and S-sp (in seconds) indicate the time-latency per movement or input in neutral (white bars) and shock (black bars) areas, respectively.
# To clarify whether SS and GRF display at the central level the same antagonistic effect that they have at the pituitary level, the effects of these neuropeptides on several behavioral parameters have been studied using the OUCEM-86^TM (Osaka University Computerized Electronic Maze). The system is integrated by the following components: a Programmable Electronic Platform (PEP) (620×620 mm) equipped with 48 photo beam sensors (OPX-T30); a Programming Panel (PP) (Model BECM-0064) for paradigm stimulation; a Shock Generator Scrambler (SGS) (Model BSG-1065) to apply continuous or discontinuous electric current to the PEP; a Control Station (CS) (BEC 16-Bio Computer Control Station BCS-1105; Bio Medica, Ltd., Osaka) which processes inputs/outputs as an interface device to automatically computerize behavioral parameters; and a Computer System (NEC PC-9801 VM2) with 1 megabyte Random Access Memory (RAM) for data processing and experimental setting.
# Male Wistar rats (175-200 g) (N =5-8 rats/group) received intracerebroventricular (i.c.v.) injections of GRF1-44 and SS-14 over a range of 0.1 to 10 mcg. Then the rats were studied in the OUCEM under two different paradigms (e.g., open field and maze paradigms).
# The amount of inputs (I/O) induced by SS was 103.5±29.5 (control =216.25±55.19, t=8.49, p<0.005) in the neutral area (NA) and 77.14±13.5 I/O in the shock area (SA) (control =298±40, t=1.26, n.s.). GRF generated 459.35±32.5 I/O in NA (t=18.13, p<0.005) and 340.5±63.5 I/O in SA (t=9.07, p<0.005) (FIGS. 1C,3). The NA/SA (N/S) ratios for control, SS- and GRF-treated rats were 0.72, 1.33, and 1.35, respectively (FIG. 2).
# [2] = tested on: SDAT patients and controls; test: Mental performance and behavior after the GRF test (DRS, MMS, BCRS, MNS); format: in vivo, human; conditions: for DRS score: basal 3.5±1.75; for MMS score: basal 3.5±2.65
# Procedure: All the SDAT patients met the DSM-III criteria for primary degenerative dementia and rigorous diagnostic criteria for SDAT. […] In LOSDAT, the onset of the disease occurred after the age of 60. The degree of severity of the dementia was assessed with Hasegawa's Dementia Rating Scale (DRS) (Hasegawa K., Inoue K. "An investigation of dementia rating scale for the elderly." Seishinigaku 16:965-969, 1974), Folstein's Mini-Mental State (MMS) Test (Folstein M. F., Folstein S., McHugh P. "Mini-mental state: a practical method for grading the cognitive state of patients for the clinician." J. Psychiat. Res. 12:189-198, 1975) and a modified model of the Brief Cognitive Rating Scale (BCRS) and Functional Assessment Stages (FAST) of Reisberg (Reisberg B., Ferris S. H., De Leon M. J. "Senile dementia of the Alzheimer type: Diagnosis and differential diagnostic features with special reference to functional assessment staging." in: Traber J., Gispen W. H. (Ed). Senile dementia of the Alzheimer type. pp 18-37, Springer-Verlag, Berlin, 1985). Concomitant pathology other than SDAT was discarded under a careful screening of the subjects with CT Scan, EEG, ECG and complementary laboratory data. Current diagnosis or history of SDM-III major affective disorder or schizophrenia as well as history of endocrine disease were criteria for exclusion. All of the control subjects were free of psychiatric and endocrine illness. All subjects included had been drug-free for a minimum of 7 days before testing.
# (§1) Simultaneously to the performance of the GRF test, electroencephalograhic and cardiovascular monitorization of the subjects were carried out. Twenty-four hours prior to the GRF test, and 3, 12, 24 and 48 hours after testing, the DRS, MMS, BCRS, and FAST tests were performed to evaluate mental performance and behavior. Additional monitoring of GRF effects was done by global physician assessment and evaluation of the Mihara Nursing Scale (MNS). This test was developed to be used as a non-cognitive parametric indicator involving several items, including quantification of food intake, locomotion, social interaction, and complementary laboratory data.
# (§2) The results were analyzed statistically by the Student's test, analysis of variance (ANOVA) and the Mann-Whitney test using a NEC PC-9801VM2 computer.
# [3] = tested on: controls and SDAT subjects; test: Electroencephalographic monitoring during the GRF test; format: in vivo, human; conditions: for EEG amplitude, sequential analysis (increase) / EEG frequency, sequential analysis (fall): 15 to 45 minutes after injection
# Procedure: as §1, §2
# [4] = tested on: Male Wistar rats; test: Locomotor activity and learning in maze paradigm (escape from 1.5 mA shock area), i.c.v. injection; format: in vivo; conditions: GRF1-44 5 mcg i.c.v., 30 minutes; control 17.12±5.42 pm
substance,measurement,setting,value
growth hormone releasing factor [GRF],"locomotor activity (LA), maze paradigm","[1]; 1 mcg i.c.v., 30 minutes, control 17.12±5.42 pm",26.66±3.15 pm
same,NA/SA (N/S) ratio (index of learning),"[1]; 1 mcg i.c.v., control 0.72",1.35
same,amount of inputs (I/O) in the neutral area (NA),"[1]; 1 mcg i.c.v., control 216.25±55.19",459.35±32.5 I/O
same,amount of inputs (I/O) in the shock area (SA),"[1]; 1 mcg i.c.v., control 298±40",340.5±63.5 I/O
same,I/O rate and positional time in SA,"[1]; GRF i.c.v., hyperkinetic syndrome, vs control group",significantly higher than in the control group
same,learning abilities (N/S ratio as index),"[1]; doses of approximately 6.10×10^-10 mol (SS) and 1.98×10^-10 mol (GRF), i.c.v.",improve learning abilities
same,DRS score,[2]; 3 hr after GRF test,5.5±2.10
same,MMS score,[2]; 3 hr after GRF test,5.15±3.75
same,DRS score,[2]; 12 hr after GRF test,6.75±3.25
same,MMS score,[2]; 12 hr after GRF test,5.5±3.65
same,DRS score,[2]; 24 hr after GRF test,4.35±1.95
same,MMS score,[2]; 24 hr after GRF test,4.5±2.75
same,DRS score,[2]; 48 hr after GRF test,3.5±1.55
same,MMS score,[2]; 48 hr after GRF test,4.35±2.75
same,duration of behavioral changes,[2]; BCRS and MNS changes after GRF test,transient
same,BCRS Axis 4 (orientation) affected by GRF,[2]; after GRF test,30%
same,BCRS Axis 7 (psychomotor) affected by GRF,[2]; after GRF test,50%
same,BCRS Axis 8 (mood and behavior) affected by GRF,[2]; after GRF test,40%
same,bulimic syndrome developed,[2]; after GRF test,2 patients
same,"appetite increased (MNS), share of subjects",[2]; controls,30%
same,"appetite increased (MNS), share of subjects",[2]; patients,45%
same,"social interaction improved (MNS), share of subjects",[2]; patients,40%
same,"EEG amplitude, sequential analysis (increase)",[3]; SDAT patients,52.5±9.89 uV
same,"EEG frequency, sequential analysis (fall)",[3]; SDAT patients,7.05±0.90 Hz
same,"EEG basic rhythm frequency, global evaluation after testing","[3]; SDAT, prior to GRF test 8.08±0.67 Hz",7.46±0.53 Hz
same,"EEG basic rhythm amplitude, global evaluation after testing","[3]; SDAT, prior to GRF test 40.80±6.06 uV",43.69±5.12 uV
same,"EEG amplitude, sequential analysis (increase)",[3]; control subjects,55.60±6.40 uV
same,"EEG frequency, sequential analysis (fall)",[3]; control subjects,8.75±0.25 Hz
same,"EEG basic rhythm frequency, global evaluation after testing","[3]; controls, prior to GRF test 9.27±0.11 Hz",9.05±0.12 Hz
same,"EEG basic rhythm amplitude, global evaluation after testing","[3]; controls, prior to GRF test 47.36±3.36 uV",49.67±5.75 uV
same,"locomotor activity (LA), maze paradigm",[4],90.2±8.4 pm
